For series [1], the system named is naked mouse oocytes (NO). In words: IVF fertilisation of naked oocytes after IVM with cyclodextrin. In kind it is cell-based. The source says:
Mouse oocytes were isolated and cultured according to descriptions in […]. The NOs were divided into […] groups and cultured in dishes containing medium added either 0%o, 0.5%o, 2.0%o or 5%o hydroxypropyl-cyclodextrin (ICN 153540, ICN Ohio, U.S.A.). IVM and IVF conditions were the same as in example 6.

Series [2] has as its system patients with type II hyperlipoprotelnemia. The note with it: oral 40 mg daily for 4 months vs dietary management alone; cited from earlier work.
Series [3] deals with C57 black×DBA 2 F1 female mice. Nature of the series: Number of 2-cells in tuba of gonadotropin-stimulated female mice after statin administration and mating. Format: in vivo, mouse.
The test system of series [4] is motile cell fraction of epididymis. In words: C/PL-ratio in motile cell fraction of epididymis after statin administration. In kind it is in vivo, mouse. Conditions: 3 i.p. injections of 1.0 mg lovastatin per 30 g body weight, male mice.
Procedure: Post-pubertal C57 black×DBA 2 F1 male mice (M&B A/S, Ry, Denmark) are used. Four mice are given 3 i.p. injections of 1.0 mg lovastatin per 30 g body weight by dissolving a tablet of Mevacor® (Merck Sharp and Dohme, NL) containing 40 mg lovastatin in 8 ml PBS and injecting 200 μL of the resulting slurry i.p. at 1 p.m. at day-6, -3 and -1, counting the day of epididymal sperm harvest as day 0. […] At 10 a.m on day 0 all mice are killed and the epididymis are prepared in physiological saline. Thereafter, the epididymis are transferred to a 1-mL culture well containing MEM (Gibco BRL, Scotland) supplemented with 2.3 mM pyruvate, 200 mM L-glutamine (Gibco BRL, Scotland), 20000 IU/L penicillin (Gibco BRL, Scotland), 20000 IU/L streptomycin (Gibco BRL, Scotland) and 0.2 mg/ml BSA (Sigma A-7030, Sigma-Aldrich, Denmark) and placed in an incubator (37° C., 95% atmospheric air: 5% CO2).
After 1.5 hours of incubation, the upper liquid phase is aspirated and transferred to a new glass-vial and centrifuged. […] One half is subjected to sterol analysis as designated in the examples above and the total sterol content is calculated to consist of cholesterol, desmosterol, cholesta-7,24-dien-3β-ol, T-MAS and lanosterol. […] The C/PL-ratio is calculated for each individual animal.
The test system of series [5] is C57 black×DBA 2 F1 female mice. In words: Number of 2-cells in tuba of gonadotropin-stimulated female mice after statin administration and mating. Format: in vivo, mouse. Conditions: for No. of 2-cells in mated animals: pre-pubertal, Gnrh 12 I.U., hCG 10 I.U. The procedure:
Prepubertal C57 black×DBA 2 F1 female mice (M&B A/S, Ry, Denmark) were stimulated to super-ovulation (11 a.m. at day 0) by i.p. Injections of 12 IU Menogon® (Ferring, Denmark) in 200 μL H2O. […] Half of the mice were given additional Injections of 1.6 mg lovastatin, by dissolving a tablet of Mevacor® (Merck Sharp and Dohme, NL) containing 40 mg lovastatin in 5 ml PBS and injecting 200 μL of the resulting slurry i.p. at three consecutive days, beginning at day 0. […] The mice were caged individually one hour later with a mature male mouse of the same strain and supplier (1 male per female). Female and male mice were separated at 9 a.m. at day 3, females were left alone for another 48 h. After killing of the females and dissection of the tuba ovarii, 2-cells were flushed into a plastic dish with culture medium (see later) by mounting a glass pipette in one end of the isolated tuba and blowing by mouth through a filter. The total number of 2-cells flushed per mouse were hereafter counted. The 2-cells were subsequently cultured in Universal IVF-medium (Medicult, Denmark) in an incubator (37° C., 95% atmospheric air, 5% CO2) in 4-well dishes (Nunclon 176740, Nunc, Denmark). After 4 days of culture, wells were scored and numbers of morula, blastocyst or degenerated entities were determined by use of a microscope:
Prepubertal C57 black×DBA 2 F1 female mice (M&B A/S, Ry, Denmark) were treated as in example 1 but for a few deviations. […] In experiment B the dose of statins was decreased to 3×100 μg/animal and administered as in example 1. […] In experiment D the dose of gonadotropins were decreased gradually whereas the dose of statins was administered as in example 1.

Series [6] concerns C57 black×DBA 2 F1 male mice. In words: Sperm quality in mice after statin administration. Format: in vivo, mouse. Conditions: statin administration as in example 6. Here is the method:
The set-up involves the same animals and statin administration as in example 6. The animals are analysed by methods that are developed in order to evaluate the fertilising potential and sperm quality.

Series [7] has as its system gonadotrophin primed prepubertal mouse ovaries. In words: Free cholesterol, FF-MAS and progesterone in ovaries of gonadotrophin primed prepubertal mice (HPLC). Conditions: statin treatment on top of hCG. In kind it is in vivo. Here is the method:
Ovaries were isolated pair-wise, weighed, freeze-dried, weighed again and subsequently extracted in 1.0 ml (v/v) 75% n-heptane: 25% isopropanol. […] Eluted material was detected by ultraviolet light absorption between 200-300 nm. […] Standards for cholesterol (Steraloids […]) and P4 (Sigma P-0130) were obtained commercially whereas the FF-MAS standards used was produced in the laboratory as described before (Baltsen et al., 1999).

Series [8] has as its system mouse cumulus enclosed oocytes (CEO). Nature of the series: IVF fertilisation of cumulus enclosed oocytes after IVM with a statin. In kind it is cell-based. Here is the method:
Mouse oocytes were isolated and cultured according to descriptions in example 3 but for a single deviation in that the IVM culture medium was further supplemented with 1 mg/mL Fetuin (Sigma F-3385, Sigma, U.S.A.). […] The ethanol was necessary in order to dissolve Mevinolin in the medium. After in vitro maturation for 22 h, oocytes were transferred to a fertilisationn medium consisting of minimal essential medium (MEM) (21090-022, Gibco BRL, Scotland), 200 mM L-glutamine (Gibco BRL, Scotland), 20000 IU/L penicillin (Gibco BRL, Scotland), 20000 IU/L streptomycin (Gibco BRL, Scotland), 3 mg/ml BSA (Sigma A-7030, Sigma-Aldrich, Denmark), 2.3 mM sodium pyruvate (S-8636, Sigma), 10 mM ethylen diamine tetra acetic acid (EDTA, Merck 1.08418.0250) and 1 mg/mL Fetuin (Sigma F-3385, Sigma, U.S.A.). Prior to oocyte transfer into the fertilisation medium, mouse sperm for IVF was obtained the following way: A 6-9 month old C57 black×DBA 2 F1 male mouse (M&B A/S, Ry, Denmark) was killed and the epididymis prepared in physiological saline. Thereafter, the epididymis were cut in small pieces and the bulk material was transferred to four 1-mL culture well containing the 800 μL IVF-medium described above and subsequently placed in an incubator (37° C., 95% atmospheric air: 5% CO2). After 1.5 hours of incubation, 300 μL of the upper liquid phase of each of the four wells was aspirated and transferred to a new glass-vial. The resulting pool of motile sperm was counted in a counting chamber and 50000 motile sperm cells was added each oocyte culture. […] These oocytes were left for another 48 hours and subsequently counted according to the maturational status of the oocyte or the progression of the fertilised zygote, i.e. GV-oocytes, GVBD-oocytes, PB-oocytes, PB^2-oocytes (oocytes with a visible second polar body), 2-cells, 3-4-cells, 4+ cells (zygotes with more than 4 blastomeres) and degenerated cells (usually granulated or cells with extensive plasma-membrane ondulation).

This is an account of results in US20050132430A1, “Igamete recruitment and developmental competence in mammals by inhibiting the de-nova sterol biosynthesis and/or promoting sterol efflux” (priority 2001, published 2005).

For the compound `CC(O)COC[C@H]1O[C@@H]2O[C@H]3[C@H](O)[C@@H](O)[C@@H](O[C@H]4[C@H](O)[C@@H](O)[C@@H](O[C@H]5[C@H](O)[C@@H](O)[C@@H](O[C@H]6[C@H](O)[C@@H](O)[C@@H](O[C@H]7[C@H](O)[C@@H](O)[C@@H](O[C@H]8[C@H](O)[C@@H](O)[C@@H](O[C@H]1[C@H](O)[C@H]2O)O[C@@H]8COCC(C)O)O[C@@H]7COCC(C)O)O[C@@H]6COCC(C)O)O[C@@H]5COCC(C)O)O[C@@H]4COCC(C)O)O[C@@H]3COCC(C)O` (stereo partly drawn) [hydroxypropyl-beta-cyclodextrin, hydroxypropyl-β-cyclodextrin], the “fraction of fertilised oocytes (PB2-oocytes to 4+ cells) after IVF” value in series [1] (0.5, 2.0 or 5 per mille in IVM-medium of NOs vs control) is on record as “increased”. The rate of degeneration entry in series [1] (cyclodextrin in the IVM-medium) is given as “not affected”.
In the case of `CC[C@H](C)C(=O)O[C@H]1C[C@@H](C)C=C2C=C[C@H](C)[C@H](CC[C@@H]3C[C@@H](O)CC(=O)O3)[C@H]21` [Mevacor, lovastatin], in series [2], the sperm motility result is listed as “small but statistically significant reduction”. In addition, the “No. of 2-cells in mated animals” value was determined as 11.4 ± 2.9 in series [3] (Exp. C, mature cycling, Gnrh 12 I.U., 3 × 1.0 mg multi, follicular phase); 16.8 ± 3.4 in series [3] (Exp. C, mature cycling, Gnrh 15 I.U., hCG 10 I.U., 1.0 mg single, ovulation); 5 in series [3] (Exp. D, pre-pubertal, Gnrh 4 I.U., hCG 5 I.U., 3 × 1.0 mg multi, follicular phase); 27.5 ± 3.5 in series [5] (Exp. A, 100 μg single, ovulation); 15.3 ± 7.3 in series [5] (Exp. A, 1000 μg single, ovulation); 19.3 ± 4.1 in series [5] (Exp. B, 100 μg single, ovulation). Moreover, in series [5] (Exp. B, 3 × 100 μg multi, follicular phase), the “No. of 2-cells in mated animals” value worked out at 6.5 ± 1.0. In addition, the “C/PL-ratios vs control group” value in series [4] was “lower”. For the same compound, the “development of cultured 2-cells into blastocysts, recovery rates” value in series [5] (2-cells cultured in vitro 4 days) was “indiscriminate to controls”. In addition, the “number of 2-cells per animal” value in series [5] (3×1.6 mg statin i.p. during follicular phase maturation, vs control) is “increased significantly”. Moreover, the “more 2-cells as compared to mice stimulated with hormone alone” value in series [5] (hormone stimulated prepubertal female mice, average, FIG. 5) is on record as “about 70%”. The “fertilising potential and sperm quality vs control animals” value in series [6] is listed as “fertility premium”. The “LH/hCG induced accumulation of FF-MAS” value in series [7] was “completely blocks”. Further, the “extent of progesterone (steroid) production” value in series [7] is “not influenced”. Further, the “tendency of decreasing tissue density of free cholesterol in the ovaries after hCG stimulation” value in series [7] is “pronounced”.
For Mevinolin, in series [8] (10 μM statin in IVM-medium 22 h, vs control and 7.5 I.U./L FSH), the “fraction of fertilised oocytes (PB2-oocytes to 4+ cells) after IVF” value is listed as “increased”. Also, the “state of development after 72 hours of embryo culture” value in series [8] (vs control and FSH groups) was “more progressed state”. In series [8] (vs control oocytes), the “cumulus expansion after the IVM culture period” value is “extensive cumulus expansion”.
